Data as given in patent US11306092B2, “Amino indole compounds useful as TLR inhibitors” (BRISTOL-MYERS SQUIBB COMPANY, priority 2017, dated 2022).

What was measured:
human TLR9 = target: T1, human TLR9 (Homo sapiens, UniProt Q9NR96); experiment: TLR9 inhibition reporter assay (HEK-Blue SEAP reporter); assay type: cell-based; conditions: HEK-Blue cells overexpressing human TLR9; ODN2006 5 nM; 22 hour incubation
T1 construct: host or cells: HEK-Blue cells
T1 sequence (Q9NR96 26-1032): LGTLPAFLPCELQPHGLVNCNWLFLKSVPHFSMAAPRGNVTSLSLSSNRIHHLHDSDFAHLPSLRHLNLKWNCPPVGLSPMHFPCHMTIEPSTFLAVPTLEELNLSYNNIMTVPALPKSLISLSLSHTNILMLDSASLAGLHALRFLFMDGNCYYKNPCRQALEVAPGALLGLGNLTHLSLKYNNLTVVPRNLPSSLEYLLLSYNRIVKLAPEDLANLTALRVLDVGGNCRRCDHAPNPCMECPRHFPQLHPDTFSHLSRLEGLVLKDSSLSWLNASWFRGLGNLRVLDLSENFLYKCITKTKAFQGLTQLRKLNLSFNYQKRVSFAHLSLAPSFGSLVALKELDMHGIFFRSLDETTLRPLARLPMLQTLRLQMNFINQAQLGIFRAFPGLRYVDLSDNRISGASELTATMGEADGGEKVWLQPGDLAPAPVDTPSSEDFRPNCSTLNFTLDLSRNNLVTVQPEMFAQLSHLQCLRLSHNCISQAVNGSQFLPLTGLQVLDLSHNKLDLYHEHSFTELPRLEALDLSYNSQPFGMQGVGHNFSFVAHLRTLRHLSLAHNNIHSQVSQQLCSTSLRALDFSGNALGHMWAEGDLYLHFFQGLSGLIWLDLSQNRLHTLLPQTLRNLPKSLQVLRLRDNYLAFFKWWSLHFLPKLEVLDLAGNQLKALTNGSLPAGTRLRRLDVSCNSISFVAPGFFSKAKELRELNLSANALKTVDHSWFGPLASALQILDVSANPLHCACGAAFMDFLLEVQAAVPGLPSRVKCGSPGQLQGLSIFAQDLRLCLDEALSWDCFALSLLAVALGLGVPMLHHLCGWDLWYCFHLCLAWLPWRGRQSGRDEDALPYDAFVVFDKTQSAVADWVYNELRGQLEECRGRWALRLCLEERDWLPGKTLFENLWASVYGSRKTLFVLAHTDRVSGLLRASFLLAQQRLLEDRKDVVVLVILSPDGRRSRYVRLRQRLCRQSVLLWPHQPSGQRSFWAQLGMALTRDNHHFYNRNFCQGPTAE
Description: (§1) TLR7/8/9 Inhibition Reporter Assays
(§2) HEK-Blue™-cells (Invivogen) overexpressing human TLR7, TLR8 or TLR9 receptors were used for screening inhibitors of these receptors using an inducible SEAP (secreted embryonic alkaline phosphatase) reporter gene under the control of the IFN-β minimal promoter fused to five NF-κB and AP-1-binding sites. Briefly, cells are seeded into Greiner 384 well plates (15000 cells per well for TLR7, 20,000 for TLR8 and 25,000 for TLR9) and then treated with test compounds in DMSO to yield a final dose response concentration range of 0.05 nM-50 μM. After a 30 minute compound pre-treatment at room temperature, the cells are then stimulated with a TLR7 ligand (gardiquimod at a final concentration of 7.5 μM), TLR8 ligand (R848 at a final concentration of 15.9 μM) or TLR9 ligand (ODN2006 at a final concentration of 5 nM) to activate NF-κB and AP-1 which induce the production of SEAP. After a 22 hour incubation at 37° C., 5% CO2, SEAP levels are determined with the addition of HEK-Blue™ Detection reagent (Invivogen), a cell culture medium that allows for detection of SEAP, according to manufacturer's specifications. The percent inhibition is determined as the % reduction in the HEK-Blue signal present in wells treated with agonist plus DMSO alone compared to wells treated with a known inhibitor.

human TLR7 = target: T2, human TLR7 (Homo sapiens, UniProt Q9NYK1); experiment: TLR7 inhibition reporter assay (HEK-Blue SEAP reporter); assay type: cell-based; conditions: HEK-Blue cells overexpressing human TLR7; gardiquimod 7.5 μM; 22 hour incubation
T2 construct: host or cells: HEK-Blue cells
T2 sequence (Q9NYK1 27-1049): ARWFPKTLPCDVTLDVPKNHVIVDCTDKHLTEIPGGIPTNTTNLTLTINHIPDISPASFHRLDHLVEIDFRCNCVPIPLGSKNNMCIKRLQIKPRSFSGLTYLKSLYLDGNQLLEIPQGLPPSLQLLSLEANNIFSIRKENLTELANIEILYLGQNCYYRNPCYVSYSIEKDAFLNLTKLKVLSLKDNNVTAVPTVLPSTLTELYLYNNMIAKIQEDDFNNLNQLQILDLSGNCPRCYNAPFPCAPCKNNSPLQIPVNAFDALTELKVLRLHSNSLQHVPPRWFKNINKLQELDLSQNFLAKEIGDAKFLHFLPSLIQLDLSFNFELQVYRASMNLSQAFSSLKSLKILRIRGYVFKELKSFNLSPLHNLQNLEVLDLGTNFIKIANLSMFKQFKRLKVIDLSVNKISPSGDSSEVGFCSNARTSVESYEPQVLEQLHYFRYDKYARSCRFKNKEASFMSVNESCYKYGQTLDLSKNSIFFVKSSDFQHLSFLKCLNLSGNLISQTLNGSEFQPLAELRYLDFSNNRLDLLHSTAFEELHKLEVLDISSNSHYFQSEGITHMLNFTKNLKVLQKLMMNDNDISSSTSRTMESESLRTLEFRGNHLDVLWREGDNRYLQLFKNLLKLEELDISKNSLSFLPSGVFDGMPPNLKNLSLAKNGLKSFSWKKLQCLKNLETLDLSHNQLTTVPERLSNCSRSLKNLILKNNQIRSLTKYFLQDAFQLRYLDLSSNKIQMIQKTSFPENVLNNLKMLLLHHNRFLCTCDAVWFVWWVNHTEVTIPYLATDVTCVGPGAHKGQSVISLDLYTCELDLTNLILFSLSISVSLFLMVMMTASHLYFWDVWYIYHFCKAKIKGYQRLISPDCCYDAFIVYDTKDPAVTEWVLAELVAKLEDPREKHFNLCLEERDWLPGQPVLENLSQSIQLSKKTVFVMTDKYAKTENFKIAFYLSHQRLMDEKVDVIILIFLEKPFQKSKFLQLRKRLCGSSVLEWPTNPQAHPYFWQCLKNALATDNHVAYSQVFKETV
Description: as §1, §2

SMILES | IC50 (human TLR9) [µM] | IC50 (human TLR7) [µM]
CCc1c(-c2ccc(OC)c(OC)c2)[nH]c2ccc(NC3CCN(C4CCN(C)CC4)CC3)cc12 [Example 125, 2-(3,4-dimethoxyphenyl)-3-ethyl-N-(1′-methyl-[1,4′-bipiperidin]-4-yl)-1H-indol-5-amine] | 0.758 | 0.376
CCc1c(-c2ccc(OC)c(OC)c2)[nH]c2ccc(N3CCCN(CCNC)CC3)cc12 [Example 178, 2-(4-(2-(3,4-dimethoxyphenyl)-3-ethyl-1H-indol-5-yl)-1,4-diazepan-1-yl)-N-methylethan-1-amine] | 2.3 | 1.04
COc1ccc(-c2[nH]c3ccc(N4CCC(N5CCCN(C(C)=O)CC5)CC4)cc3c2C(C)C)cc1OC [Example 88, 1-(4-(1-(2-(3,4-dimethoxyphenyl)-3-isopropyl-1H-indol-5-yl)piperidin-4-yl)-1,4-diazepan-1-yl)ethan-1-one] | 4.64 | 0.069
COc1ccc(-c2[nH]c3ccc(NC4CCC(N5CCC(N(C)C)CC5)CC4)cc3c2C(C)C)cc1OC (centres unmarked) [Example 46, 2-(3,4-dimethoxyphenyl)-N-(4-(4-(dimethylamino)piperidin-1-yl)cyclohexyl)-3-isopropyl-H-indol-5-amine] | 0.817 | 1.05
COc1ccc(-c2[nH]c3ccc(NC4CCC(N5CCN(CC(C)C)CC5)CC4)cc3c2C(C)C)cc1OC (centres unmarked) [Example 51, 2-(3,4-dimethoxyphenyl)-N-(4-(4-isobutylpiperazin-1-yl)cyclohexyl)-3-isopropyl-1H-indol-5-amine] | 1.4 | 0.767
COc1ccc(-c2[nH]c3ccc(N4CCC(C5CCN(Cc6ccsc6)CC5)CC4)cc3c2C(C)C)cc1OC [Example 98, 2-(3,4-dimethoxyphenyl)-3-isopropyl-5-(1′-(thiophen-3-ylmethyl)-[4, 4′-bipiperidin]-1-yl)-1H-indole] | 1.52 | 0.181
COc1ccc(-c2[nH]c3ccc(NC4CCC(NCCN5CCOCC5)CC4)cc3c2C(C)C)cc1OC (centres unmarked) [Example 48, N1-(2-(3,4-dimethoxyphenyl)-3-isopropyl-1H-indol-5-yl)-N4-(2-morpholinoethyl)cyclohexane-1,4-diamine] | 1.25 | 0.322
CCc1c(-c2ccnc(OC)c2)[nH]c2ccc(N3CCN(CCNC)CC3)cc12 [Example 137, 2-(4-(3-ethyl-2-(2-methoxypyridin-4-yl)-1H-indol-5-yl)piperazin-1-yl)-N-methylethan-1-amine] | 2.96 | 0.07
COc1ccc(-c2[nH]c3ccc(N4CCC(N5CCN(C6CCCC6)CC5)CC4)cc3c2C(C)C)cc1OC [Example 93, 5-(4-(4-cyclopentylpiperazin-1-yl)piperidin-1-yl)-2-(3,4-dimethoxyphenyl)-3-isopropyl-1H-indole] | 0.925 | 0.132
COc1ccc(-c2[nH]c3ccc(NC4CCC(NCCN(C)C)CC4)cc3c2C(C)C)cc1OC (centres unmarked) [Example 32, N1-(2-(3,4-dimethoxyphenyl)-3-isopropyl-1H-indol-5-yl)-N4-(2-(dimethylamino)ethyl)cyclohexane-1,4-diamine] | 0.61 | 0.191
COc1ccc(-c2[nH]c3ccc(N4CCC(N5CCN(CC6CC6)CC5)CC4)cc3c2C(C)C)cc1OC [Example 87, 5-(4-(4-(cyclopropylmethyl)piperazin-1-yl)piperidin-1-yl)-2-(3,4-dimethoxyphenyl)-3-isopropyl-1H-indole] | 9.8 | 0.337
COc1ccc(-c2[nH]c3ccc(NC4CCC(NCCCN(C)C)CC4)cc3c2C(C)C)cc1OC (centres unmarked) [Example 37, N1-(2-(3,4-dimethoxyphenyl)-3-isopropyl-1H-indol-5-yl)-N4-(3-(dimethylamino)propyl) cyclohexane-1,4-diamine] | 1.43 | 0.171
COc1ccc(-c2[nH]c3ccc(NC4CCC(N5CCN(CCN6CCCC6)CC5)CC4)cc3c2C(C)C)cc1OC (centres unmarked) [Example 63, 2-(3,4-dimethoxyphenyl)-3-isopropyl-N-(4-(4-(2-(pyrrolidin-1-yl)ethyl)piperazin-1-yl)cyclohexyl)-1H-indol-5-amine] | 0.405 | 0.257
